According to patent US10568828B2, “Peptide having hair growth-promoting activity and use thereof” (CAREGEN CO., LTD., priority 2016, dated 2020):
Ends that are not written are not given here.

Legend:
Assay type in all cases: cell-based
[1] = test system: ERK; assay: p-ERK Western blot; settings: human hair follicle dermal papilla cells, 15 and 30 minutes
Experimental: (§1) Human hair follicle dermal papilla cells were seeded at a density of 4×10^5 cells/well on 6-well plates, followed by incubation overnight. After changing into serum-free medium, the cells were treated with the peptides, followed by incubation for 15 and 30 minutes, and then the wells were harvested to prepare cell lysates. Western blotting was performed using PI3K antibodies (Santa Cruz Biotechnology, USA) and phospho-ERK antibody (Cell Signaling Technology, USA) to compare protein expression patterns.

[2] = test system: Bcl-2; assay: Bcl-2 Western blot; settings: human hair follicle dermal papilla cells, 24 hours
Experimental: as §1, with “plate,” for “plates,”, “24 hours,” for “15 and 30 minutes,”, “Bcl-2 and Bax” for “PI3K”, “Biotechnology,” for “Biotechnology, USA) and phospho-ERK antibody (Cell Signaling Technology,”

[3] = test system: Bax; assay: Bax Western blot; settings: human hair follicle dermal papilla cells, 24 hours
Experimental: as §1, with “plate,” for “plates,”, “24 hours,” for “15 and 30 minutes,”, “Bcl-2 and Bax” for “PI3K”, “Biotechnology,” for “Biotechnology, USA) and phospho-ERK antibody (Cell Signaling Technology,”

[4] = test system: VEGF; assay: VEGF RT-PCR; settings: human hair follicle dermal papilla cells, 24 hours
Experimental: (§2) Human hair follicle dermal papilla cells were seeded at a density of 4×10^5 cells/well on 6-well plates, followed by incubation overnight. After changing into serum-free medium, the cells were treated with the peptides, followed by incubation for 24 hours, and then the wells were harvested to isolate RNA. After RNA quantification, cDNA synthesis was conducted using the cDNA synthesis kit (Intron, Korea), followed by PCR using PCR premix (Intron, Korea) and respective KGF, bFGF, and VEGF primers, and then electrophoresis was performed on 5% agarose gel to compare the mRNA expression levels of the growth factors for each sample treatment conditions.

[5] = test system: MSX2; assay: MSX2 RT-PCR; settings: human hair follicle dermal papilla cells, 24 hours
Experimental: as §2, with “MSX2” for “respective KGF, bFGF, and VEGF”, “levels” for “levels of the growth factors”

[6] = test system: PI3K; assay: PI3K Western blot; settings: human hair follicle dermal papilla cells, 15 and 30 minutes
Experimental: as §1

[7] = test system: Human hair follicle dermal papilla cells; assay: DPC proliferation assay (MTT); settings: serum-free medium, 3 days incubation, absorbance 550 nm
Experimental: Human hair follicle dermal papilla cells were seeded at a density of 2×10^3 cells/well on 96-well plates, followed by incubation overnight. After changing into serum-free medium, the cells were treated with the peptides, followed by incubation for 3 days, and then the wells were treated with 4 mg/ml MTT solution, followed by reaction for 4 hours. The resulting formazan was solubilized with DNSO, and then the absorbance was measured at 550 nm using a microplate reader.

[8] = test system: bFGF; assay: bFGF RT-PCR; settings: human hair follicle dermal papilla cells, 24 hours
Experimental: as §2

[9] = test system: β-catenin; assay: β-Catenin activation test (Western blot of nuclear protein); settings: human hair follicle dermal papilla cells, 15 and 30 minutes, Western blot of nuclei
Experimental: as §1, with “isolate nuclear and cytoplasmic proteins.” for “prepare cell lysates.”, “β-catenin” for “PI3K antibodies”, “USA)” for “USA) and phospho-ERK antibody (Cell Signaling Technology, USA)”, “β-catenin” for “protein”, “patterns in nuclei.” for “patterns.”

[10] = test system: KGF; assay: KGF RT-PCR; settings: human hair follicle dermal papilla cells, 24 hours
Experimental: as §2

[11] = test system: keratin-14; assay: Keratin-14 RT-PCR; settings: human hair follicle dermal papilla cells, 24 hours
Experimental: as §2, with “5×10^5” for “4×10^5”, “keratin” for “respective KGF, bFGF, and VEGF”, “levels” for “levels of the growth factors”, “respective” for “each”

[12] = test system: TGF-β1; assay: TGF-β1 RT-PCR; settings: human hair follicle dermal papilla cells, 24 hours
Experimental: as §2, with “separate” for “isolate”, “TGF-β1” for “respective KGF, bFGF, and VEGF”, “levels” for “levels of the growth factors”

Substance | ERK phosphorylation [1] | expression of the apoptosis inhibiting protein Bcl-2 [2] | expression of the apoptosis-related protein Bax [3] | mRNA expression of VEGF [4] | mRNA expression of MSX2 [5] | PI3K expression [6] | growth of human hair follicle dermal papilla cells [7] | mRNA expression of bFGF [8] | nuclear translocation due to the increase in activity of β-catenin [9] | mRNA expression of KGF [10] | mRNA expression of keratin-14 [11] | mRNA expression of TGF-β1 [12]
KKFIQQVYLAI [SEQ ID NO: 3] | increase | increase | decrease | increased | stimulated | increase | stimulated in a dose-dependent manner | increased | stimulated |  |  | 
Arg-Arg-Lys-Ile (RRKI) [SEQ ID NO: 1] | increase | increase | decrease |  |  | increase | stimulated in a dose-dependent manner | increased | stimulated | increased | increased | inhibited
Ile-Tyr-Phe-Tyr (IYFY) [SEQ ID NO: 2] | increase |  |  | increased | stimulated | increase | stimulated in a dose-dependent manner |  | stimulated |  |  | inhibited
